Experimental data published in patent publication US11666658B2, “Rifamycin analogs and antibody-drug conjugates thereof” (Regeneron Pharmaceuticals, Inc., priority 2018, dated 2023).

How the values were obtained:
[1] = system: S. aureus MSRA strain NRS384; assay: S. aureus IV disseminated infection mouse model (4 day model, Balb/c mice), kidney burden; type: in vivo; details: 4 day infection model, mAb or conjugate 1 mg/kg, with vancomycin treatment, limit of detection 250 cfu
Procedure: S. aureus MSRA strain NRS384 was grown overnight in Tryptic soy broth (TSB) and sub-cultured to mid-logarithmic phase. Bacteria were then washed twice with PBS and resuspended in PBS at a concentration of 1.5×10^8 cfu/mL. […] Mice were monitored for weight loss and body conditioning score throughout the infection. […] For quantification, the kidneys were homogenized followed by enumeration of colony forming units through serial dilution in PBS and plating onto trypticase soy agar plates.

[2] = system: S. aureus MSRA strain NRS384; assay: S. aureus IV advanced disseminated infection mouse model (8 day model, Balb/c mice), kidney burden; type: in vivo
Procedure: To test the efficacy of anti-S. aureus Ab-antibiotic ncADCs of the disclosure in combination therapy with standard of care vancomycin in vivo, two different 8 day intravenous disseminated infection models was performed. […] S. aureus MSRA strain NRS384 was grown overnight in Tryptic soy broth (TSB) and sub-cultured to mid-logarithmic phase. Bacteria were then washed twice with PBS and resuspended in PBS at a concentration of 1.5×10^8 cfu/mL. Balb/c mice were then infected intravenously through the tail vein with 100 uL of the bacterial suspension, for a final infectious dose of […]. In the first study, mice were treated either vancomycin alone, an isotype control antibody plus vancomycin, an isotype control Ab-ncADC (Isotype control-36) plus vancomycin, an anti-WTA antibody plus vancomycin, an anti-WTA Ab-Antibiotic ncADC (anti-WTA Ab-Antibiotic ncADC-36), or a different anti-WTA Ab-Antibiotic ncADC (anti-WTA Ab-Antibiotic ncADC-25) plus vancomycin. Mice were also treated either vancomycin alone, an isotype control antibody plus vancomycin, an isotype control Ab-Antibiotic ncADC (Isotype control Ab-Antibiotic ncADC-36) plus vancomycin, an anti-Protein A antibody plus vancomycin, or an anti-Protein A Ab-Antibiotic ncADC (anti-Protein A Ab-Antibiotic ncADC-36).
In the second study, mice were treated either vancomycin alone, an isotype control antibody plus vancomycin, an isotype control Ab-Antibiotic ncADC (Isotype control Ab-Antibiotic ncADC-36) plus vancomycin, a second isotype control Ab-Antibiotic ncADC (Isotype control Ab-Antibiotic ncADC-25) plus vancomycin, a third isotype control Ab-Antibiotic ncADC (Isotype control Ab-Antibiotic ncADC-21) plus vancomycin, an anti-WTA antibody plus vancomycin, an anti-WTA Ab-Antibiotic ncADC (anti-WTA Ab-Antibiotic ncADC-36), a second anti-WTA Ab-Antibiotic ncADC (anti-WTA Ab-Antibiotic ncADC-25) plus vancomycin, or a third anti-WTA Ab-Antibiotic ncADC (anti-WTA Ab-Antibiotic ncADC-21) plus vancomycin. In all studies, for treatment groups that included vancomycin, it was dosed from three to seven days post infection at 110 mg/kg subcutaneously twice daily. For treatment groups that included antibodies and ncADCs, they were administered four days after infection subcutaneously at 2 mg/kg for the first study or 5 mg/kg for the second study. A no treatment infected control and an uninfected control were included in each of the studies. Mice were monitored for weight loss and body conditioning score throughout the infection. At eight days post infection, mice were euthanized, and the S. aureus kidney burden was quantified. For quantification, the kidneys were homogenized followed by enumeration of colony forming units through serial dilution in PBS and plating onto trypticase soy agar plates. Data points represent the kidney burden from individual mice tested.

CN[C@H](CC(C)C)C(=O)N[C@H]1C(=O)N[C@@H](CC(N)=O)C(=O)N[C@H]2C(=O)N[C@H]3C(=O)N[C@H](C(=O)N[C@H](C(=O)O)c4cc(O)cc(O)c4-c4cc3ccc4O)[C@H](O)c3ccc(c(Cl)c3)Oc3cc2cc(c3O[C@@H]2O[C@H](CO)[C@@H](O)[C@H](O)[C@H]2O[C@H]2C[C@](C)(N)[C@H](O)[C@H](C)O2)Oc2ccc(cc2Cl)[C@H]1O [vancomycin]
Median cfu/kidney pair [1]: 4.38E+05 cfu/kidney pair | Median cfu/kidney pair ([2]; Balb/c mice, 8 day model, first study (Table 37, anti-Protein A), mAb or conjugate 2 mg/kg, with vancomycin treatment): 7.25E+06 cfu/kidney pair | Median cfu/kidney pair ([2]; Balb/c mice, 8 day model, second study (Table 38), mAb or conjugate 5 mg/kg, with vancomycin treatment): 1.88E+06 cfu/kidney pair | reduction of S. aureus kidney burden ([2]; first study, vancomycin alone 110 mg/kg subcutaneously twice daily day 3 to 7, kidneys at day 8): 1-2 logs | Median cfu/kidney pair ([2]; in vivo): 7.25E+06 cfu/kidney pair | reduction of S. aureus kidney bacterial burden ([2]; second study, vancomycin alone): 1-2 logs
